Patent publication US20200263231A1, “Fluorogenic dyes for high sensitivity DNA detection” (LIFE TECHNOLOGIES CORPORATION, priority 2016, published 2020)

Legend:
[1] = test system: calf thymus DNA; experiment: Fluorescence emission and enhancement of compounds bound to calf thymus DNA; format: binding; conditions: 0.8 μM compound with 500 ng/ml calf thymus DNA in TE buffer; for Emission Max: excited at 488 nm; for Fluorescence Enhancement: emission area 500-715 nm compared to compound 1, defined as 1000-fold
Method: Compounds 1-65 were prepared and their fluorescence absorption and emission characteristics were measured. Intrinsic fluorescence of the compounds only (without DNA) was negligible. Emission spectra for the compounds bound to dsDNA were obtained by incubating 0.8 μM compound with 500 ng/ml calf thymus DNA in TE buffer (10 mM Tris-HCl, pH 7.5, 1 mM EDTA) in a final volume of 3 ml. Measurements were made using PerkinElmer LS 55 (F-11) Fluorescence spectrometer. Samples were excited at 488 nm and fluorescence emission was measured with emission slit widths of 2.5 nm. Absorption maxima were determined according to standard techniques.
Fluorescence enhancement measurements of the compounds were obtained by incubating 0.8 μM compound with 500 ng/ml calf thymus DNA with compounds at a final concentration of 0.8 μM in TE buffer. Compound 1 was used as an internal standard to control for variability (e.g., in excitation light intensity). The area-under-curve of fluorescence emission spectra from 500 nm to 715 nm was calculated, and compared to that of compound 1, which was defined as having 1000-fold fluorescence enhancement relative to fluorescence of the compound alone.

[2] = UV/VIS absorption spectra; format: physicochemical; conditions: 10 μM compound in 50 mM potassium phosphate buffer (pH 7.0)
Method: The UV/VIS absorption spectra were obtained with 10 μM compound solution in 50 mM potassium phosphate buffer (pH 7.0) in a final volume of 3 mL. Measurements were carried out using a Lambda 245 spectrophotometer from Perkin Elmer.

[3] = test system: dsDNA; experiment: Microplate fluorescence when bound to dsDNA; format: binding; conditions: 500 ng/mL dsDNA
Method: Compounds were tested in triplicate for fluorescence enhancement when bound to dsDNA. 190 μL of 1 μM compound in 1× Tris-EDTA, pH 7.5, 0.01% CHAPS was added to 10 μL of 4 different concentrations of dsDNA (0, 25 ng/mL, 200 ng/mL, and 500 ng/mL) in wells of 96 well Costar black, clear bottom microplates. Plates were read on a SpectraFluor multifunction microplate reader (Tecan) at 491 nm excitation and 520 nm emission.
Compounds were tested for fluorescence enhancement when bound to dsDNA as described in Example 3. Fluorescence data with dsDNA are shown in FIG. 5 for the different tested compounds.

[4] = test system: ssDNA; experiment: Microplate fluorescence when bound to ssDNA; format: binding; conditions: for Ratio to R1, fluorescent emission with ssDNA / fluorescent emission with ssDNA: 500 ng/mL ssDNA; for ssDNA emission: text says 10 ng/μL
Method: The compounds from FIG. 1 were also characterized with respect to their fluorescence enhancement when bound to ssDNA. The compounds from FIG. 1, R1 and R2 were tested in triplicate. 190 μL of 1 μM compound in 1× Tris-EDTA pH7.5, 0.01% CHAPS was added to 10 μL of 4 different concentrations of ssDNA in wells of 96 well Costar black, clear bottom microplates. Plates were read on a SpectraFluor multifunction microplate reader (Tecan) at 491 nm excitation and 520 nm emission. Fluorescence data with ssDNA are shown in FIG. 3 for the different tested compounds.
Next, the compounds were compared for their fluorescence enhancement when bound to ssDNA as described in Example 1. Fluorescence data with ssDNA are shown in FIG. 6 for the different tested compounds.

[5] = test system: dsDNA versus ssDNA; experiment: In vitro selectivity dsDNA versus ssDNA; format: binding
Method: Six compounds (2, 34, 35, 41, 42, and 48) were characterized in in vitro selectivity experiments for double-stranded DNA (dsDNA) versus single-stranded DNA (ssDNA). These compounds were compared against comparative compounds R^1 and R^2.
For each individual compound, the dsDNA and ssDNA fluorescence emission at 10 ng/μL was compared to evaluate in vitro selectivity for dsDNA/ssDNA, as shown in FIG. 4.
Further in vitro selectivity experiments for double-stranded DNA (dsDNA) versus single-stranded DNA (ssDNA) were performed using the methods outlined in Example 3 to compare compounds 2, 34, 41, 42, and 48 to comparative compounds R1 and R2.
For each individual compound, the dsDNA and ssDNA fluorescence emission at 10 ng/μL was calculated to estimate in vitro selectivity, as shown in FIG. 7.

[6] = Example 3, Table 2, 1 μM compound, 491 nm excitation, 520 nm emission
[7] = Example 3, Table 3, 1 μM compound, 491 nm excitation, 520 nm emission
[8] = Example 3, Table 4, FIG. 4 says 500 ng/mL
[9] = Example 4, Table 7, FIG. 7 says 500 ng/mL

SMILES | Emission Max [1] [nm] | Fluorescence Enhancement [1] [fold] | Absorbance Max [2] [nm] | Ratio to R1, fluorescent emission with dsDNA ([3]; Example 3, Table 2) | fluorescent emission with dsDNA [3, 6] | Ratio to R1, fluorescent emission with dsDNA ([3]; Example 4, Table 5) | fluorescent emission with dsDNA ([3]; Example 4, Table 5) | Ratio to R1, fluorescent emission with ssDNA ([4]; Example 3, Table 3) | fluorescent emission with ssDNA [4, 7] | ssDNA emission [4, 8] | fluorescent emission with ssDNA ([4]; Example 4, Table 6) | ssDNA emission [4, 9] | ratio of dsDNA emission versus ssDNA emission ([5]; Example 3, Table 4) | ratio of dsDNA emission versus ssDNA emission ([5]; Example 4, Table 7)
CCCN(CCC[N+](C)(C)C)C1=CC(=Cc2sc3ccccc3[n+]2C)c2ccccc2N1c1ccccc1.[Cl-].[I-] [Compound 2] | 523 | 964 | 501 | 1.74 | 9494 | 1.8 | 10339 | 1.6 | 1773 | 1773 | 1767 | 1767 | 5.4 | 5.9
CCCCN(CCCN(C)C)C1=CC(=Cc2sc3ccccc3[n+]2C)c2ccc(OC)cc2N1c1ccccc1.[I-] [Compound 34] | 517 | 1071 | 488 | 1.92 | 10452 | 2.1 | 12434 | 2.4 | 2578 | 2578 | 2603 | 2603 | 4.1 | 4.8
CCCCN(CCC[N+](C)(C)C)C1=CC(=Cc2sc3ccccc3[n+]2C)c2ccc(OC)cc2N1c1ccccc1.[I-].[I-] [Compound 35] | 518 | 1069 | 489 | 2.05 | 11136 |  |  | 2.3 | 2515 | 2515 |  |  | 4.4 | 
CCCN(CCCN(C)C)C1=CC(=Cc2sc3ccccc3[n+]2C)c2ccc(OC)cc2N1c1ccccc1.[I-] [Compound 41] | 517 | 1020 | 493 | 1.83 | 9936 | 1.9 | 11424 | 2.7 | 2878 | 2878 | 2814 | 2814 | 3.5 | 4.1
CCCN(CCC[N+](C)(C)C)C1=CC(=Cc2sc3ccccc3[n+]2C)c2ccc(OC)cc2N1c1ccccc1.[I-].[I-] [Compound 42] | 519 | 1070 | 494 | 2.00 | 10860 | 2.3 | 13580 | 2.8 | 3017 | 3017 | 3078 | 3078 | 3.6 | 4.4
CCN(CCCN(C)C)C1=CC(=Cc2sc3ccccc3[n+]2C)c2ccc(OC)cc2N1c1ccccc1.[I-] [Compound 48] | 520 | 1016 | 489 | 1.72 | 9350 | 1.9 | 11400 | 2.5 | 2739 | 2739 | 2477 | 2477 | 3.4 | 4.6
CN(C)CCCN(CCCN(C)C)C1=CC(=Cc2sc3ccccc3[n+]2C)c2ccccc2N1c1ccccc1.[I-] [Compound R1, reference compound] |  |  |  | 1.00 | 5441 | 1.0 | 5887 | 1.0 | 1081 | 1081 | 1080 | 1080 | 5.0 | 5.5
COc1ccc2c(c1)N(c1ccccc1)C(N(CCC[N+](C)(C)C)CCC[N+](C)(C)C)=CC2=Cc1sc2ccccc2[n+]1C.I [Compound R2, reference compound] |  |  |  | 1.59 | 8627 | 1.7 | 9941 | 1.5 | 1669 | 1669 | 1512 | 1512 | 5.2 | 6.6
